Measured values reported in US4293700A, “2,6-Dimethyl-1,4-dihydropyridine-3,5-dicarboxylic acid esters and method for preparing same” (priority 1978, dated 1981).
Structures can show the parent of a compound that is named as a salt.

Legend:
metastases = settings: in words; cited from earlier work
[1] = cited from earlier work
Walker carcinosarcoma = experiment: Antimetastatic activity: life duration of rats with Walker carcinosarcoma; assay type: in vivo; settings: for Life duration, % of the control: Walker carcinosarcoma (rats), 10 days; for increase of the life time: rats, after the removal of Walker carcinoma
Procedure: (§1) Antimetastatic properties of esters of 2,6-dimethyl-1,4-dihydropyridine-3,5-dicarboxylic acid have been tested on Walker carcinosarcoma, sarcoma 536 and Lewis pneumocarbinoma using mice and rats as test animals. The preparations were administered for 10 days. Two procedures of the administration of these compounds prior to the removal of the primary tumor and introduction of the compound after the removal of the primary tumor. The efficiency of antimetastatic activity of esters of 2,6-dimethyl-1,4-dihydropyridine-3,5-dicarboxylic acid is assessed by the increase of the life duration of the test animals expressed as percentage of the life duration of the animals administered no preparation and serving as the control.
Thus, disodium salt of carboxylatomethyl ester of 2,6-dimethyl-1,4-dihydropyridine-3,5-dicarboxylic acid administered in doses of 50 and 100 mg/kg during the period after the removal of Walker carcinoma increases the life time of the rest rats by 120 and 93% respectively. […] The effect of the compounds is most pronounced in tests with Walker carbinosarcoma on rats; a high efficiency is also noticed for sarcoma 536 with rats; less pronounced is the effect on Lewis lungs carcinoma with mice. The use of esters of 2,6-dimethyl-1,4-dihydropyridine-3,5-dicarboxylic acid provides no negative effect on physiological functions and behaviour of the test animals.

sarcoma 536 = experiment: Antimetastatic activity: life duration of rats with sarcoma 536; assay type: in vivo; settings: Sarcoma 536 (rats), 10 days
Procedure: as §1

Lewis lungs carcinoma = experiment: Antimetastatic activity: life duration of mice with Lewis lungs carcinoma; assay type: in vivo; settings: after the removal of the primary tumor, 10 days
Procedure: as §1

Solubility = assay type: physicochemical
[2] = after the removal of the primary tumor, daily dose 50 mg/kg
[3] = after the removal of the primary tumor, daily dose 150 mg/kg
[4] = before the removal of the primary tumor, daily dose 100 mg/kg

In the case of `CC(CN1CC(=O)NC(=O)C1)N1CC(=O)NC(=O)C1` (racemic) [JCFR-159, (±) 1,2-bis(3,5-dioxopiperazin-1-yl)propane], the antimetastatic activity (metastases) is listed as “certain antimetastic activity”, the side effects ([1]; in vivo) is listed as “causes leucopenia, thrombocytopenia and dyspeptic phenomena” and the toxicity ([1]; in words) is listed as “somewhat toxic”. The LD50 ([1]; species and route not given) was 1,000 mg/kg.

For `CC1=C(C(=O)OCC(=O)O)CC(C(=O)OCC(=O)O)=C(C)N1` [disodium carboxylate-methyl ester, disodium salt of carboxylate-methyl ester of 2,6-dimethyl-1,4-dihydropyridine-3,5-dicarboxylic acid], the “Life duration, % of the control” value (Walker carcinosarcoma; [2]) was 220%, the “Life duration, % of the control” value (Walker carcinosarcoma; after the removal of the primary tumor, daily dose 100 mg/kg) was 193% and the “Life duration, % of the control” value (Walker carcinosarcoma; [3]) was 112%. For the same compound, the “Life duration, % of the control” value (Walker carcinosarcoma; before the removal of the primary tumor, daily dose 50 mg/kg) was 130%, the “Life duration, % of the control” value (Walker carcinosarcoma; [4]) was 150% and the “increase of the life time” value (Walker carcinosarcoma; 50 mg/kg) was 120%. For the same compound, the “increase of the life time” value (Walker carcinosarcoma; 100 mg/kg) was 93%, the “Life duration, % of the control” value (sarcoma 536; [2]) was 129% and the “Life duration, % of the control” value (sarcoma 536; [3]) was 132%. For the same compound, the “Life duration, % of the control” value (sarcoma 536; [4]) was 152%, the “Life duration, % of the control” value (sarcoma 536; before the removal of the primary tumor, daily dose 150 mg/kg) was 138% and the “Life duration, % of the control” value (Lewis lungs carcinoma; daily dose 100 mg/kg) was 120%. The “Life duration, % of the control” value (Lewis lungs carcinoma; daily dose 150 mg/kg) was 113%, the solubility in alcohol (Solubility) was “sparingly soluble in alcohol” and the solubility in water (Solubility) was “highly soluble in water”.

With `CC1=C(C(=O)OC2CC(C)CCC2C(C)C)CC(C(=O)OC2CC(C)CCC2C(C)C)=C(C)N1` (centres unmarked) [menthyl ester, Menthyl ester of 2,6-dimethyl-1,4-dihydropyridine-3,5-dicarboxylic acid] the “Life duration, % of the control” value (Walker carcinosarcoma; prior to the removal of the primary tumor, daily dose 150 mg/kg) was 116%, the “Life duration, % of the control” value (Walker carcinosarcoma; prior to the removal of the primary tumor, daily dose 300 mg/kg) was 165% and the solubility in acetone (Solubility; acetone) was “highly-soluble”. For the same compound, the solubility in alcohol (Solubility) was “highly-soluble”, the solubility in benzene (Solubility; benzene) was “highly-soluble” and the solubility in chloroform (Solubility; chloroform) was “highly-soluble”. The solubility in water (Solubility) was “insoluble in water”.
